# In US8765728B2, “[1,5]-diazocin derivatives” (MelliTech, priority 2009, dated 2014):
# Tested on: Min6 cell
# Assay: Insulin secretion response of beta cell line to formula I compounds (insulin ELISA)
# Assay type: cell-based
# Details: rank according to % increase versus control at most effective dose
# Summary of the method: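 After compound or vehicle exposure, Min6 cells were held 2 h in glucose-free medium and preincubated 30 min at 37° C in glucose-free KRBH (pH 7.4, 0.1% BSA). They were then incubated 30 min at 37° C in KRBH with varying glucose. Secreted insulin and acid-ethanol-extracted intracellular insulin were measured by ELISA.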
row,SMILES,Insulin secretion (Min6 cell) Range 1 to 5
1,"O=C1CCN(C[C@@H](O)COc2ccc(Cl)cc2)c2ccc(OC(F)F)cc2CN1C1CC1 [Compound 119, (R)-1-(3-(4-chlorophenoxy)-2-hydroxypropyl)-5-cyclopropyl-8-(difluoromethoxy)-2,3,5,6-tetrahydrobenzo[b][1,5]diazocin-4(1H)-one]",3 (3: 120-140% of control)
2,"O=C1CCN(C[C@H](O)COc2ccc(Cl)cc2)c2ccc(OC(F)F)cc2CN1C1CC1 [Compound 120, (S)-1-(3-(4-chlorophenoxy)-2-hydroxypropyl)-5-cyclopropyl-8-(difluoromethoxy)-2,3,5,6-tetrahydrobenzo[b][1,5]diazocin-4(1H)-one]",1 (1: 90-110% of control)
3,"COCC(=O)N1CCC(=O)N(C2CC2)Cc2cc(F)ccc21 [Compound 121, 5-cyclopropyl-8-fluoro-1-(2-methoxyacetyl)-2,3,5,6-tetrahydrobenzo[b][1,5]diazocin-4(1H)-one]",1 (1: 90-110% of control)
4,"O=C(COc1ccccc1)N1CCC(=O)N(C2CC2)Cc2cc(F)ccc21 [Compound 122, 5-cyclopropyl-8-fluoro-1-(2-phenoxyacetyl)-2,3,5,6-tetrahydrobenzo[b][1,5]diazocin-4(1H)-one]",1 (1: 90-110% of control)
5,"O=C(c1ccco1)N1CCC(=O)N(C2CC2)Cc2cc(F)ccc21 [Compound 123, 5-cyclopropyl-8-fluoro-1-(furan-2-carbonyl)-2,3,5,6-tetrahydrobenzo[b][1,5]diazocin-4(1H)-one]",1 (1: 90-110% of control)
6,"O=C1CCNc2ccc(OC(F)F)cc2CN1C1CC1 [Compound 124, 5-cyclopropyl-8-(difluoromethoxy)-2,3,5,6-tetrahydrobenzo[b][1,5]diazocin-4(1H)-one]",1 (1: 90-110% of control)
7,"Cn1cnc(S(=O)(=O)N2CCC(=O)N(C3CC3)Cc3c2ccc2c3OCCO2)c1 [Compound 125, 11-cyclopropyl-7-((1-methyl-1H-imidazol-4-yl)sulfonyl)-2,3,8,9,11,12-hexahydro-[1,4]dioxino[2′,3′:3,4]benzo[1,2-b][1,5]diazocin-10(7H)-one]",1 (1: 90-110% of control)
8,"O=C1CCN(C[C@@H](O)COc2ccc(Cl)cc2)c2ccc3c(c2CN1C1CC1)OCCO3 [Compound 126, (R)-7-(3-(4-chlorophenoxy)-2-hydroxypropyl)-11-cyclopropyl-2,3,8,9,11,12-hexahydro-[1,4]dioxino[2′,3′:3,4]benzo[1,2-b][1,5]diazocin-10(7H)-one]",2 (2: 110-120% of control)
9,"COc1ccc2c(c1OC(F)F)CN(C1CC1)C(=O)CCN2 [Compound 127, 5-cyclopropyl-7-(difluoromethoxy)-8-methoxy-2,3,5,6-tetrahydrobenzo[b][1,5]diazocin-4(1H)-one]",1 (1: 90-110% of control)
10,"O=C(c1cnccn1)N1CCC(=O)N(C2CC2)Cc2c1ccc1c2OCCO1 [Compound 128, 11-cyclopropyl-7-(pyrazine-2-carbonyl)-2,3,8,9,11,12-hexahydro-[1,4]dioxino[2′,3′:3,4]benzo[1,2-b][1,5]diazocin-10(7H)-one]",1 (1: 90-110% of control)
11,"COc1ccc2c(c1OC(F)F)CN(C1CC1)C(=O)CCN2C(=O)c1cnccn1 [Compound 129, 5-cyclopropyl-7-(difluoromethoxy)-8-methoxy-1-(pyrazine-2-carbonyl)-2,3,5,6-tetrahydrobenzo[b][1,5]diazocin-4(1H)-one]",2 (2: 110-120% of control)
12,"O=C(c1cnccn1)N1CCC(=O)N(C2CC2)Cc2cc(F)ccc21 [Compound 130, 5-cyclopropyl-8-fluoro-1-(pyrazine-2-carbonyl)-2,3,5,6-tetrahydrobenzo[b][1,5]diazocin-4(1H)-one]",1 (1: 90-110% of control)
13,"O=C(c1ccccn1)N1CCC(=O)N(C2CC2)Cc2cc(Cl)ccc21 [Compound 131, 8-chloro-5-cyclopropyl-1-picolinoyl-2,3,5,6-tetrahydrobenzo[b][1,5]diazocin-4(1H)-one]",1 (1: 90-110% of control)
14,"O=C(c1ccccn1)N1CCC(=O)N(C2CC2)Cc2c1ccc1c2OCCO1 [Compound 132, 11-cyclopropyl-7-picolinoyl-2,3,8,9,11,12-hexahydro-[1,4]dioxino[2′,3′:3,4]benzo[1,2-b][1,5]diazocin-10(7H)-one]",1 (1: 90-110% of control)
15,"O=C(c1cnccn1)N1CCC(=O)N(C2CC2)Cc2cc(Cl)ccc21 [Compound 133, 8-chloro-5-cyclopropyl-1-(pyrazine-2-carbonyl)-2,3,5,6-tetrahydrobenzo[b][1,5]diazocin-4(1H)-one]",2 (2: 110-120% of control)
16,"COc1ccc2c(c1OC(F)F)CN(C1CC1)C(=O)CCN2C[C@@H](O)COc1ccc(Cl)cc1 [Compound 134, (R)-1-(3-(4-chlorophenoxy)-2-hydroxypropyl)-5-cyclopropyl-7-(difluoromethoxy)-8-methoxy-2,3,5,6-tetrahydrobenzo[b][1,5]diazocin-4(1H)-one]",1 (1: 90-110% of control)
17,"O=C1CCN(C[C@@H](O)COc2ccc(Cl)cc2)c2ccc(Cl)cc2CN1C1CC1 [Compound 135, (R)-8-chloro-1-(3-(4-chlorophenoxy)-2-hydroxypropyl)-5-cyclopropyl-2,3,5,6-tetrahydrobenzo[b][1,5]diazocin-4(1H)-one]",1 (1: 90-110% of control)
18,"CS(=O)(=O)c1ccc(OC[C@H](O)CN2CCC(=O)N(C3CC3)Cc3cc(F)ccc32)cc1 [Compound 136, (R)-5-cyclopropyl-8-fluoro-1-(2-hydroxy-3-(4-(methylsulfonyl)phenoxy)propyl)-2,3,5,6-tetrahydrobenzo[b][1,5]diazocin-4(1H)-one]",1 (1: 90-110% of control)
19,"CS(=O)(=O)c1ccc(OC[C@H](O)CN2CCC(=O)N(C3CC3)Cc3cc(Cl)ccc32)cc1 [Compound 137, (R)-8-chloro-5-cyclopropyl-1-(2-hydroxy-3-(4-(methylsulfonyl)phenoxy)propyl)-2,3,5,6-tetrahydrobenzo[b][1,5]diazocin-4(1H)-one]",2 (2: 110-120% of control)
20,"Cc1cc(C(=O)N2CCC(=O)N(C3CC3)Cc3c2ccc2c3OCCO2)on1 [Compound 138, 11-cyclopropyl-7-(3-methylisoxazole-5-carbonyl)-2,3,8,9,11,12-hexahydro-[1,4]dioxino[2′,3′:3,4]benzo[1,2-b][1,5]diazocin-10(7H)-one]",1 (1: 90-110% of control)
21,"Cc1cc(C(=O)N2CCC(=O)N(C3CC3)Cc3cc(Cl)ccc32)on1 [Compound 139, 8-chloro-5-cyclopropyl-1-(3-methylisoxazole-5-carbonyl)-2,3,5,6-tetrahydrobenzo[b][1,5]diazocin-4(1H)-one]",1 (1: 90-110% of control)
22,"COc1ccc2c(c1OC(F)F)CN(C1CC1)C(=O)CCN2C(=O)c1cc(C)no1 [Compound 140, 5-cyclopropyl-7-(difluoromethoxy)-8-methoxy-1-(3-methylisoxazole-5-carbonyl)-2,3,5,6-tetrahydrobenzo[b][1,5]diazocin-4(1H)-one]",3 (3: 120-140% of control)
23,"COc1ccc2c(c1)CN(C1CC1)C(=O)CCN2C(=O)c1cc(C)no1 [Compound 141, 5-cyclopropyl-8-methoxy-1-(3-methylisoxazole-5-carbonyl)-2,3,5,6-tetrahydrobenzo[b][1,5]diazocin-4(1H)-one]",4 (4: 140-170% of control)
24,"Cc1cc(C(=O)N2CCC(=O)N(C3CC3)Cc3cc(OC(F)F)ccc32)on1 [Compound 142, 5-cyclopropyl-8-(difluoromethoxy)-1-(3-methylisoxazole-5-carbonyl)-2,3,5,6-tetrahydrobenzo[b][1,5]diazocin-4(1H)-one]",4 (4: 140-170% of control)
25,"O=C(CN1CCC(=O)N(C2CC2)Cc2cc(Cl)ccc21)c1ccc(OC(F)F)cc1 [Compound 143, 8-chloro-5-cyclopropyl-1-(2-(4-(difluoromethoxy)phenyl)-2-oxoethyl)-2,3,5,6-tetrahydrobenzo[b][1,5]diazocin-4(1H)-one]",2 (2: 110-120% of control)
26,"O=C(CN1CCC(=O)N(C2CC2)Cc2c1ccc1c2OCCO1)c1ccc(OC(F)F)cc1 [Compound 144, 11-cyclopropyl-7-(2-(4-(difluoromethoxy)phenyl)-2-oxoethyl)-2,3,8,9,11,12-hexahydro-[1,4]dioxino[2′,3′:3,4]benzo[1,2-b][1,5]diazocin-10(7H)-one]",1 (1: 90-110% of control)
27,"OC(CN1CCCN(C2CC2)Cc2cc(F)ccc21)c1ccc(Cl)cc1 (stereo not drawn) [Compound 145, 1-(4-chlorophenyl)-2-(5-cyclopropyl-8-fluoro-3,4,5,6-tetrahydrobenzo[b][1,5]diazocin-1(2H)-yl)ethanol]",3 (3: 120-140% of control)
28,"C[C@H](O)CN1CCC(=O)N(C2CC2)Cc2c1ccc1c2OCCO1 [Compound 146, (S)-11-cyclopropyl-7-(2-hydroxypropyl)-2,3,8,9,11,12-hexahydro-[1,4]dioxino[2′,3′:3,4]benzo[1,2-b][1,5]diazocin-10(7H)-one]",5 (5: >170% of control)
29,"C[C@H](O)CN1CCC(=O)N(C2CC2)Cc2cc(Cl)ccc21 [Compound 147, (S)-8-chloro-5-cyclopropyl-1-(2-hydroxypropyl)-2,3,5,6-tetrahydrobenzo[b][1,5]diazocin-4(1H)-one]",2 (2: 110-120% of control)
30,"O=C1CCN(CC(O)c2ccc(OC(F)F)cc2)c2ccc(Cl)cc2CN1C1CC1 (stereo not drawn) [Compound 148, 8-chloro-5-cyclopropyl-1-(2-(4-(difluoromethoxy)phenyl)-2-hydroxyethyl)-2,3,5,6-tetrahydrobenzo[b][1,5]diazocin-4(1H)-one]",1 (1: 90-110% of control)
